Data: PubChem BioAssay AID248 (DTP/NCI, 2004)
Where “and” joins values, the source holds several entries; their conditions need not be identical. Equal values may be shown once. Inconclusive results and toxic doses are left out. No stated cut-off is given here; in the data, active means T/C of 150% or more; inactive means T/C below 125%.

Tested on: L1210 leukemia ip in BDF1 mice, survival T/C
Test: NCI In Vivo Anticancer Drug Screen. Data for tumor model L1210 Leukemia (intraperitoneal) in B6D2F1 (BDF1) mice
Settings: endpoint: mean survival time, higher = longer survival
In short: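 Antitumor effect is assessed in tumor-bearing animals. Survival in the compound arm is compared with a vehicle-dosed control arm and expressed as their quotient.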

[1] = dose: 50.0 mg/kg/injection, schedule: Q04DX003 (ip), vehicle: Klucel (hydroxypropylcellulose) (HPC)
[2] = dose: 100.0 mg/kg/injection, schedule: Q04DX003 (ip), vehicle: Klucel (hydroxypropylcellulose) (HPC)
[3] = dose: 200.0 mg/kg/injection, schedule: Q04DX003 (ip), vehicle: Klucel (hydroxypropylcellulose) (HPC)
[4] = dose: 100.0 mg/kg/injection, schedule: Q01DX001 (ip), vehicle: saline
[5] = dose: 200.0 mg/kg/injection, schedule: Q01DX001 (ip), vehicle: saline
[6] = dose: 400.0 mg/kg/injection, schedule: Q01DX001 (ip), vehicle: saline
[7] = dose: 25.0 mg/kg/injection, schedule: Q01DX009 (ip), vehicle: Klucel (hydroxypropylcellulose) (HPC)
[8] = dose: 50.0 mg/kg/injection, schedule: Q01DX009 (ip), vehicle: Klucel (hydroxypropylcellulose) (HPC)
[9] = dose: 100.0 mg/kg/injection, schedule: Q01DX009 (ip), vehicle: Klucel (hydroxypropylcellulose) (HPC)
[10] = dose: 200.0 mg/kg/injection, schedule: Q01DX009 (ip), vehicle: Klucel (hydroxypropylcellulose) (HPC)
[11] = dose: 400.0 mg/kg/injection, schedule: Q01DX009 (ip), vehicle: Klucel (hydroxypropylcellulose) (HPC)
[12] = dose: 400.0 mg/kg/injection, schedule: Q04DX003 (ip), vehicle: Klucel (hydroxypropylcellulose) (HPC)
[13] = dose: 50.0 mg/kg/injection, schedule: Q01DX001 (ip), vehicle: carboxymethylcellulose (CMC)
[14] = dose: 100.0 mg/kg/injection, schedule: Q01DX001 (ip), vehicle: carboxymethylcellulose (CMC)
[15] = dose: 200.0 mg/kg/injection, schedule: Q01DX001 (ip), vehicle: carboxymethylcellulose (CMC)
[16] = dose: 400.0 mg/kg/injection, schedule: Q01DX001 (ip), vehicle: carboxymethylcellulose (CMC)
[17] = dose: 100.0 mg/kg/injection, schedule: Q01DX001 (ip), vehicle: saline with Tween-80
[18] = dose: 200.0 mg/kg/injection, schedule: Q01DX001 (ip), vehicle: saline with Tween-80
[19] = dose: 400.0 mg/kg/injection, schedule: Q01DX001 (ip), vehicle: saline with Tween-80
[20] = dose: 75.0 mg/kg/injection, schedule: Q01DX001 (ip), vehicle: saline
[21] = dose: 150.0 mg/kg/injection, schedule: Q01DX001 (ip), vehicle: saline
[22] = dose: 50.0 mg/kg/injection, schedule: Q01DX001 (ip), vehicle: saline with Tween-80
[23] = dose: 100.0 mg/kg/injection, schedule: Q04DX002 (ip), vehicle: Klucel (hydroxypropylcellulose) (HPC)
[24] = dose: 200.0 mg/kg/injection, schedule: Q04DX002 (ip), vehicle: Klucel (hydroxypropylcellulose) (HPC)
[25] = dose: 100.0 mg/kg/injection, schedule: Q04DX003 (ip), vehicle: saline with Tween-80
[26] = dose: 200.0 mg/kg/injection, schedule: Q04DX003 (ip), vehicle: saline with Tween-80
[27] = dose: 400.0 mg/kg/injection, schedule: Q04DX003 (ip), vehicle: saline with Tween-80
[28] = dose: 25.0 mg/kg/injection, schedule: Q01DX009 (ip), vehicle: saline with Tween-80
[29] = dose: 50.0 mg/kg/injection, schedule: Q01DX009 (ip), vehicle: saline with Tween-80
[30] = dose: 400.0 mg/kg/injection, schedule: Q01DX009 (ip), vehicle: saline with Tween-80
[31] = dose: 50.0 mg/kg/injection, schedule: Q01DX001 (ip), vehicle: saline
[32] = dose: 100.0 mg/kg/injection, schedule: Q01DX009 (ip), vehicle: saline with Tween-80
[33] = dose: 200.0 mg/kg/injection, schedule: Q01DX009 (ip), vehicle: saline with Tween-80

Measured: T/C

CN(N)P(=O)(Nc1ccccc1)Nc1ccccc1
inactive: [1] 98 % of control | dose: 75.0 mg/kg/injection, schedule: Q01DX009 (ip), vehicle: Klucel (hydroxypropylcellulose) (HPC) 102 % of control | [2] 91 % of control | dose: 150.0 mg/kg/injection, schedule: Q01DX009 (ip), vehicle: Klucel (hydroxypropylcellulose) (HPC) 115 % of control | [3] 96 % of control | dose: 300.0 mg/kg/injection, schedule: Q01DX009 (ip), vehicle: Klucel (hydroxypropylcellulose) (HPC) 100 % of control

O=c1cc(-c2ccccc2Br)[nH]c2ccccc12
inactive: [4] 96 % of control | [5] 100 % of control | [6] 96 % of control

Cc1nc(Cl)c(CO)c(CO)c1O
inactive: dose: 12.5 mg/kg/injection, schedule: Q01DX009 (ip), vehicle: Klucel (hydroxypropylcellulose) (HPC) 95 % of control | [7] 98 % of control | dose: 25.0 mg/kg/injection, schedule: Q04DX003 (ip), vehicle: Klucel (hydroxypropylcellulose) (HPC) 94 % of control | [8] 92 % of control | [1] 90 % of control | [2] 106 % of control

CCOC(=O)c1cnc(SC)nc1Nc1cccc(Br)c1
inactive: [9] 91 % of control | [2] 97 % of control | [10] 96 % of control | [3] 92 % of control | [11] 93 % of control | [12] 90 % of control

O=C(Nc1cccc(Cl)c1)Nc1ccccc1C(F)(F)F
inactive: [13] 104 % of control | [14] 106 % of control | [15] 106 % of control | [16] 101 % of control

BrCCOC1CCCCO1 (stereo not given)
inactive: dose: 25.0 mg/kg/injection, schedule: Q01DX005 (ip), vehicle: saline 105 % of control | dose: 50.0 mg/kg/injection, schedule: Q01DX005 (ip), vehicle: saline 117 % of control | dose: 100.0 mg/kg/injection, schedule: Q01DX005 (ip), vehicle: saline 107 % of control | dose: 200.0 mg/kg/injection, schedule: Q01DX005 (ip), vehicle: saline 105 % of control

CC1(c2ccccc2)OCCCO1
inactive: [17] 100 % of control | [18] 98 % of control | [19] 107 % of control

CN(C)c1cc2c3c(c1)CCCN3CCC2
inactive: dose: 6.25 mg/kg/injection, schedule: Q01DX001 (ip), vehicle: saline 108 % of control | dose: 12.5 mg/kg/injection, schedule: Q01DX001 (ip), vehicle: saline 101 % of control

CC[N+]1(C)CCOCC1
inactive: [20] 96 % of control and 94 % of control and 107 % of control | [21] 94 % of control and 100 % of control and 98 % of control | dose: 300.0 mg/kg/injection, schedule: Q01DX001 (ip), vehicle: saline 96 % of control and 98 % of control

Cc1ccc(N=Nc2c(C)nn(C(N)=S)c2-c2ccccc2)cc1
inactive: [20] 94 % of control | [21] 90 % of control

Cc1cccc(C(=O)NN)n1
inactive: dose: 12.5 mg/kg/injection, schedule: Q01DX009 (ip), vehicle: saline 94 % of control | dose: 25.0 mg/kg/injection, schedule: Q01DX009 (ip), vehicle: saline 105 % of control

C[n+]1ccn2ccccc21
inactive: [22] 104 % of control | [17] 109 % of control

O=C1CC2(CC3(Cl)C(Cl)=C(Cl)C2(Cl)C3(Cl)Cl)C(=O)O1 (stereo not given)
inactive: [13] 100 % of control | [14] 102 % of control | [15] 102 % of control | [16] 102 % of control

CC1CCC2(OC1)OC1CC3C4CCC5CC(=O)CCC5(C)C4CCC3(C)C1C2C (stereo not given)
inactive: [23] 102 % of control | [24] 105 % of control | dose: 400.0 mg/kg/injection, schedule: Q04DX002 (ip), vehicle: Klucel (hydroxypropylcellulose) (HPC) 94 % of control

Cc1c(C)c(Br)c(C)c(-c2c(O)c(Br)c(-c3c(C)c(C)c(C)c(Br)c3C)c(O)c2Br)c1C
inactive: [25] 97 % of control | [26] 90 % of control

CCc1ccc(CC(=S)N2CCOCC2)cc1
inactive: [14] 101 % of control | [15] 95 % of control | [16] 109 % of control

CC(C)(C(O)c1ccccc1)[N+](=O)[O-] (stereo not given)
inactive: [25] 101 % of control | [26] 97 % of control | [27] 101 % of control

COC(=O)c1nc(Cl)nc(N)c1Cl
inactive: [2] 94 % of control | [3] 94 % of control | [12] 97 % of control

Cc1cccc(N=Nc2ccc(O)cc2)c1
inactive: [9] 100 % of control | [10] 97 % of control | [11] 101 % of control

OCC1=CCc2ccccc21
inactive: dose: 100.0 mg/kg/injection, schedule: Q04DX002 (ip), vehicle: other 93 % of control | dose: 200.0 mg/kg/injection, schedule: Q04DX002 (ip), vehicle: other 93 % of control | dose: 400.0 mg/kg/injection, schedule: Q04DX002 (ip), vehicle: other 93 % of control

C1CCC2[N-]CC3CCCCC3[N-]CC3CCCCC3[N-]CC3CCCCC3[N-]CC2C1.CO.[Co+3] (stereo not given)
inactive: [23] 110 % of control | [24] 103 % of control

CN(CCC(=O)O)S(=O)(=O)c1ccccc1
inactive: [4] 103 % of control | [5] 97 % of control | [6] 89 % of control

COC(=O)C1=C(C)NC(=O)NC1c1ccc(OC)cc1 (stereo not given)
inactive: [25] 103 % of control | [26] 90 % of control | [27] 90 % of control

CC(=O)NCC(C)C
inactive: dose: 100.0 mg/kg/injection, schedule: Q01DX009 (ip), vehicle: saline 101 % of control | dose: 200.0 mg/kg/injection, schedule: Q01DX009 (ip), vehicle: saline 108 % of control | dose: 400.0 mg/kg/injection, schedule: Q01DX009 (ip), vehicle: saline 105 % of control

CC(=O)N(C)c1ccc(NC(=S)NC(=O)c2cccc([N+](=O)[O-])c2)cc1
inactive: [28] 97 % of control and 109 % of control | [29] 98 % of control and 108 % of control | [17] 97 % of control | dose: 100.0 mg/kg/injection, schedule: Q04DX002 (ip), vehicle: saline 93 % of control and 101 % of control | [18] 92 % of control | dose: 200.0 mg/kg/injection, schedule: Q04DX002 (ip), vehicle: saline 96 % of control and 97 % of control | [19] 92 % of control | [30] 93 % of control and 105 % of control | dose: 400.0 mg/kg/injection, schedule: Q04DX002 (ip), vehicle: saline 101 % of control and 104 % of control

OC1CCC2CC12 (stereo not given)
inactive: [22] 98 % of control | [17] 102 % of control and 106 % of control | [18] 107 % of control and 95 % of control | [19] 93 % of control

Cn1c(=O)c2[nH]c(C3CCCC3)nc2n(C)c1=O
inactive: [31] 96 % of control | [4] 96 % of control | [5] 96 % of control

Nc1ccccc1CCc1ccccc1N
inactive: [32] 98 % of control | [33] 98 % of control | [30] 94 % of control

CCCCCCCCCCNC(C)=O
inactive: [9] 104 % of control | [2] 109 % of control | [10] 106 % of control | [3] 96 % of control | [11] 89 % of control | [12] 102 % of control

NC(=S)N/N=C\c1cn(Cc2ccccc2)c2ccccc12
inactive: [31] 95 % of control | [4] 101 % of control | [5] 101 % of control | [6] 97 % of control

CSC(=N)c1cccc(OCCCc2ccccc2)c1
inactive: [28] 92 % of control | [29] 92 % of control | [32] 101 % of control | [33] 93 % of control

CN(C(=O)c1ccccc1)N(C)C(=O)c1ccccc1
inactive: [7] 106 % of control | [8] 95 % of control | [1] 98 % of control | [2] 110 % of control
